Experimental findings from ChEMBL document CHEMBL3286346, “Ultrapure ajulemic acid has improved CB2 selectivity with reduced CB1 activity” (Bioorg Med Chem, 2014) are described below.

Each structure is given as a SMILES string. The source made the active and inactive calls. The calls are words filed in the database; no cut-off is given here.

Data set [1] concerns Mus musculus. Description: Antinociceptive activity in CD1 mouse assessed as increase in paw withdrawal latency at 0.05 to 5 mg/kg, po measured after 90 mins post dose by hot plate test relative to vehicle-treated control. It counts as functional, organism-based. In general terms: Thermal pain tests record how soon the animal reacts.
The subject of data set [2] is Mus musculus. Briefly: Antinociceptive activity in CD1 mouse assessed as increase in paw withdrawal latency at 56 mg/kg, po measured after 90 mins post dose by hot plate test relative to vehicle-treated control. Also noted: dose 56 mg/kg. It counts as functional, organism-based.
A further data set concerns the target Cannabinoid receptor 2 (Homo sapiens, UniProt P34972). Briefly: Displacement of [3H]-CP-55940 from human CB2 receptor expressed in HEK293T cell membranes by scintillation counting. The arrangement: species or system HEK-293T. In general terms: In a radioligand displacement assay an active substance lowers the binding of a labelled ligand.
In data set [3] the test system is HL-60. Description: Antiinflammatory activity in human HL60 cells assessed as stimulation of PGJ synthesis after 2 hrs by ELISA in presence of CB2 antagonist SR144528. It counts as functional, cell-based. Background: ELISA stands for enzyme-linked immunosorbent assay.
For data set [4], the system named is Mus musculus. Briefly: Toxicity in CD1 mouse assessed as time immobility on the ring for 5 mins at 30 mg/kg, po measured after 90 mins post dose by ring catalepsy test. It counts as organism-based. Also noted: dose 30 mg/kg, route oral. To be noted: in vivo.
The test system of data set [5] is HL-60. Briefly: Antiinflammatory activity in human HL60 cells assessed as stimulation of PGJ synthesis after 2 hrs by ELISA. The format is functional, cell-based.
Data set [6] has as its system Mus musculus. Briefly: Toxicity in CD1 mouse assessed as hypothermia measured as lowering of core body temperature at 3 to 56 mg/kg, po measured after 90 mins post dose. Conditions: in vivo, 1.5 h. The format is organism-based. Also noted: dose 3-56 mg/kg, route oral.
Another data set deals with Cannabinoid receptor 1 (Homo sapiens, UniProt P21554). Description: biochemical. It counts as cell-based, HEK-293T.
Chain of Cannabinoid receptor 1 (P21554 whole entry): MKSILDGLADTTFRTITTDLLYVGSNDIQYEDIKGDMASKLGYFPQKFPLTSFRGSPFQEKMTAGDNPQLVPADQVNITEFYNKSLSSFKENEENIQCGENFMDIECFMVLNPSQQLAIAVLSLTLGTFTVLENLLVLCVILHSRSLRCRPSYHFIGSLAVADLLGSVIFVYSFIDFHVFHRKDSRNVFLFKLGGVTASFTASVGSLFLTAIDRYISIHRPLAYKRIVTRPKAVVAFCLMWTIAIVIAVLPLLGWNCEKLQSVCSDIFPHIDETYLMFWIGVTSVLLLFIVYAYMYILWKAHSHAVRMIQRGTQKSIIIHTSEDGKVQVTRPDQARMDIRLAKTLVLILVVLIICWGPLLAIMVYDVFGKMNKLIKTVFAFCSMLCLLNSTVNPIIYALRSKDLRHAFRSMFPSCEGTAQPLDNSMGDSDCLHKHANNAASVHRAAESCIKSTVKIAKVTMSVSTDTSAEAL
The subject of data set [7] is HL-60. Description: Antiinflammatory activity in human HL60 cells assessed as stimulation of PGJ synthesis after 2 hrs by ELISA in presence of CB1 antagonist SR141716. It counts as functional, cell-based.
A further data set relates to HEK-293T. Description: Selectivity ratio of Ki for human CB1 receptor expressed in HEK293T cell membranes to human CB2 receptor expressed in HEK293T cell membranes. The format is cell-based.

Chain of Cannabinoid receptor 2 (P34972 whole entry): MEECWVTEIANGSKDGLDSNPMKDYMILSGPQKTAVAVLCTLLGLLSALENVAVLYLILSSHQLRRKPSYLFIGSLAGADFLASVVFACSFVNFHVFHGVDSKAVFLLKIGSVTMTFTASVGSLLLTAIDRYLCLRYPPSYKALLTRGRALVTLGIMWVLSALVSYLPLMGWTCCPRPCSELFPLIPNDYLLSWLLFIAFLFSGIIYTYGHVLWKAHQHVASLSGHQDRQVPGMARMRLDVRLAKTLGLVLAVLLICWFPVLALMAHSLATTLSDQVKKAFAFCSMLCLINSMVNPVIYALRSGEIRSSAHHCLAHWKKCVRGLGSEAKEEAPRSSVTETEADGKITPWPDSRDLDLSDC
Description for Cannabinoid receptor 1: Displacement of [3H]-CP-55940 from human CB1 receptor expressed in HEK293T cell membranes by scintillation counting

As to `CCCCCCC(C)(C)c1cc(O)c2c(c1)OC(C)(C)[C@@H]1CC=C(C(=O)O)C[C@@H]21`, the result in the data set on Mus musculus [1] was Active.

As for `CCCCCCC(C)(C)c1cc(OC(C)=O)c2c(c1)OC(C)(C)[C@@H]1CC=C(C(=O)O)C[C@@H]21`, the result in the data set on Mus musculus [2], with HL-60 [3] and in the data set with HL-60 [7] was inactive. Further, the Ki (as a rule, the equilibrium dissociation constant of an inhibitor or competing ligand from its target) on Cannabinoid receptor 2 was found to be 51 nM; at Cannabinoid receptor 1 it was 628 nM. Moreover, the figures for the Activity entry in the data set on Mus musculus [4] and in the data set with Mus musculus [6] were “Toxic” and “Non-toxic”, respectively. Further, the result with HL-60 [5] was Active. For the same compound, in the data set on HEK-293T, the Ratio Ki came to 12.3.
